# Laboratory results as given in patent US5942502A, “Method of treating diseases resulting from calcium metabolism disorders” (priority 1998, dated 1999).
# “Also recorded” adds a separate entry of the source. Like-named read-outs stand apart in the source and are kept apart here.
# Columns and labels:
# [1] = Study of dietary effect on the absorption of ST-630 (crossover); format: in vivo, human; details: 2.0 μg, postprandial (30 min after meal) compared with fasting (FIG. 13)
# Procedure: (§1) (1) Serum concentrations: ST-630, Ca, P, Mg and Al-P
# *: Administration at 30 min after meal.
# The dietary effect on the absorption of ST-630 was studied by the crossover method at the dose of 2.0 μg.
# [2] = Subjective and objective symptoms (incl. ESR) in the clinical studies of ST-630; format: in vivo, human
# Description: 2) Questioning, auscultation, percussion
# 5. Subjective and objective symptoms
# [3] = Single-dose clinical study of ST-630: urinary excretions of electrolytes; format: in vivo, human
# Description: (3) Urinalysis: pH, occult blood, protein, glucose, bilirubin, urobilinogen, sediment and creatinine clearance (24-hour method)
# (2) Urinary excretion ST-630, Ca, P, Mg, Na, K, creatinine, c-AMP*^3 and hydroxyproline*^3
# [4] = system: Ovariectomized rats; assay: Ovariectomized rat model: serum Ca and P, femur dry weight, ash weight and breaking load; format: in vivo, Female Fisher rats; details: for Serum Pi / Breaking load (femur) / Serum Ca / Ash weight (femur) / Dry weight (femur): three times a week for 23 weeks, Mean ± SD; for Serum Pi: OVX 2.6 ± 0.4; for Breaking load (femur): OVX 9.0 ± 0.9; for Serum Ca: OVX 9.7 ± 0.2; for Ash weight (femur): OVX 285 ± 19; for Dry weight (femur): OVX 431 ± 26
# Description: Female Fisher rats, 9-10 months old, were ovariectomized and were fed a vitamin D-deficient diet containing 0.45% calcium and 0.3% phosphorus. The rats were given 15IU of vitamin D3 orally once a week throughout this experiment. Four weeks after the surgery, the rats were orally adminstered three times a week for 23 weeks with ST-630 (30, 100 or 300 pmole/kg) or 1α-hydroxyvitamin D3 (100 or 300 pmole/kg).
# [5] = Repeated-dose clinical study of ST-630 (7 days, postprandial); format: in vivo, human; details: 1.0 μg/day for 7 days
# Procedure: 4.1. Dosing schedule (postprandial administration)
# *^1 : Blood samples are collected only immediately before
# *^2 : Blood samples are collected only immediately before
# *^3 : Only cereatinie are determined immediately before and 12 hr
# after administration on day 1, immediately before and 12, 24, 48, 72, 96
# and 120 hr after the last administration, and at followup examination. On
# days 2-6, blood samples are collected only immediately before
# ST-630 was administered postprandially at a daily dose of 1.0 μg for 7 days.
# [6] = system: vitamin D responsive systems of vitamin D-deficient animals; details: cited from earlier work; for activity relative to 1,25-(OH)2 D3: vitamin D responsive systems, vitamin D-deficient animals, times that of 1,25-(OH)2 D3
# [7] = Single-dose clinical study of ST-630: blood biochemistry / serum electrolytes; format: in vivo, human
# Description: (2) Blood biochemistry: Total protein fraction, BUN, creatinine, total cholesterol, neutral fat, phospholipid, serum electrolytes (Na, K, Cl, Ca, P, Mg), Al-P, GOT, GPI, LDH, γ-GTP, CPK, blood glucose, HBs antigen/antibody*^1, serologic test for syphilis, activated partial thrombo-plastin time *^2 and prothrombin time *^2
# as §1
# [8] = system: male rats; assay: Acute toxicity (LD50), single dose; format: in vivo, rat; details: rats, from LD50
# Description: (§2) LD50 data represent the dose administered resulting in the death of 50% of the test group.
# [9] = Acute toxicity (LD50), single dose; format: in vivo, rat; details: rat, in vivo; single (acute) dose, male rats, at 14 days
# Description: as §2
# [10] = Overall safety / tolerance between effectiveness and toxicity in humans; format: in vivo, human
# [11] = system: female beagle dogs; assay: Chronic dosing toxicity, three months oral; format: in vivo, dog (beagle)
# Procedure: With respect to chronic dosing, a group of six female beagle dogs were given 0.3 mg/kg of either ST-630 or 1α-hydroxyvitamin D3 orally each day for three months.
# [12] = 0.0125 μg single dose, subject 1, last value, no date
# [13] = 2.0 μg single dose, subject 8, last value, no date
# [14] = compared with 1α-hydroxyvitamin D3
# [15] = dose response over the doses tested
# [16] = vitamin D-like activity compared with 1,25-dihydroxycholecalciferol
# [17] = single dose 0.25, 0.5, 1 and 2 μg/man (FIGS. 1-4)
# [18] = single doses 0.0125 μg to 2.0 μg
smiles,measurement,setting,value
"C=C1/C(=C\C=C2/CCC[C@]3(C)[C@@H]([C@H](C)CCCC(O)(C(F)(F)F)C(F)(F)F)CC[C@@H]23)C[C@@H](O)C[C@@H]1O [ST-630, 26,26,26,27,27,27-hexafluoro-1α,25-dihydroxycholecalciferol]","AUC (area under the serum concentration curve), postprandial versus fasting",[1],slightly higher
same,ESR 1 h,"[2]; 0.0125 μg single dose, subject 1, date 2/4 (before: 3)",3
same,ESR 2 h,"[2]; 0.0125 μg single dose, subject 1, date 2/4 (before: 7)",8
same,ESR 1 h,"[2]; 0.0125 μg single dose, subject 1, date 2/8 (before: 3)",3
same,ESR 2 h,"[2]; 0.0125 μg single dose, subject 1, date 2/8 (before: 7)",8
same,ESR 1 h,"[2]; 0.0125 μg single dose, subject 1, follow-up examination 2/15 (before: 3)",13
same,ESR 2 h,"[2]; 0.0125 μg single dose, subject 1, follow-up examination 2/15 (before: 7)",34
same,ESR 1 h,[2]; [12],1
same,ESR 2 h,[2]; [12],8
same,ESR 1 h,"[2]; 2.0 μg single dose, subject 8, date 8/15 (before: 5)",4
same,ESR 2 h,"[2]; 2.0 μg single dose, subject 8, date 8/15 (before: 8)",8
same,ESR 1 h,"[2]; 2.0 μg single dose, subject 8, date 8/19 (before: 5)",4
same,ESR 2 h,"[2]; 2.0 μg single dose, subject 8, date 8/19 (before: 8)",11
same,ESR 1 h,"[2]; 2.0 μg single dose, subject 8, follow-up examination 8/27 (before: 5)",11
same,ESR 2 h,"[2]; 2.0 μg single dose, subject 8, follow-up examination 8/27 (before: 8)",27
same,ESR 1 h,[2]; [13],3
same,ESR 2 h,[2]; [13],8
same,Symptom,"[2]; repeated-dose study, 1.0 μg/day, 7 days, subjects 1-8",None and No symptom
same,"increase in erythrocyte sedimentation rate, number of cases",[2]; single dose 0.0125 μg (Step 1),one case
same,headache (symptom),[2]; single dose 0.25 μg (Step 5),Headache; also recorded: one case
same,"increase in erythrocyte sedimentation rate, number of cases",[2]; single dose 2.0 μg (Step 8),one case
same,Symptom,"[2]; study of dietary effect, 2.0 μg, subjects 1-10",None and No symptom
same,total urinary Ca excretion,[3]; single dose 2.0 μg,increases
same,urinary Ca/Cr ratio,[3]; single dose 2.0 μg,increases
same,urinary electrolytes,[3]; single doses below 2.0 μg (FIGS. 5-12),no significant increases
same,Serum Pi,[4]; 30 pmole/kg p.o.,3.6 ± 0.3 mg/100 ml
same,Breaking load (femur),[4]; 30 pmole/kg p.o.,9.7 ± 0.8 kg
same,Serum Ca,[4]; 30 pmole/kg p.o.,9.9 ± 0.4 mg/100 ml
same,Ash weight (femur),[4]; 30 pmole/kg p.o.,298 ± 22 mg
same,Dry weight (femur),[4]; 30 pmole/kg p.o.,449 ± 29 mg
same,Serum Pi,[4]; 100 pmole/kg p.o.,4.8 ± 0.2 mg/100 ml
same,Breaking load (femur),[4]; 100 pmole/kg p.o.,10.6 ± 0.5 kg
same,Serum Ca,[4]; 100 pmole/kg p.o.,10.6 ± 04 mg/100 ml
same,Ash weight (femur),[4]; 100 pmole/kg p.o.,319 ± 12 mg
same,Dry weight (femur),[4]; 100 pmole/kg p.o.,472 ± 21 mg
same,Serum Pi,[4]; 300 pmole/kg p.o.,5.3 ± 0.3 mg/100 ml
same,Breaking load (femur),[4]; 300 pmole/kg p.o.,12.4 ± 1.3 kg
same,Serum Ca,[4]; 300 pmole/kg p.o.,11.7 ± 0.7 mg/100 ml
same,Ash weight (femur),[4]; 300 pmole/kg p.o.,362 ± 32 mg
same,Dry weight (femur),[4]; 300 pmole/kg p.o.,538 ± 47 mg
same,prevention of the decrease of ash weight of the femur,[4]; [14],more potently
same,prevention of the decrease of breaking load of the femur,[4]; [14],more potently
same,prevention of the decrease of dry weight of the femur,[4]; [14],more potently
same,increase of mechanical strength of the bone,[4]; compared with 1α-hydroxyvitamin D3 at doses causing the same increase of serum calcium (FIG. 24),more potently
same,serum calcium level,[4]; [15],increased dose-dependently
same,serum phosphorus level,[4]; [15],increased dose-dependently
same,serum Ca concentration change,[5]; postprandial,tended to be elevated slightly but the change was within the normal range
same,urinary Ca/Cr ratio,[5]; postprandial,increased with the number of dosings
same,recovery of urinary Ca/Cr ratio,[5]; after completion of administration,recovered to the control value immediately after completion of administration
same,"activity relative to 1,25-(OH)2 D3","[6]; listed as 26,26,26,27,27,27-F6 -1,25-(OH)2 D3",at least ten times greater
same,"activity relative to 1,25-(OH)2 D3","[6]; listed as 26,26,26,27,27,27-hexafluoro derivative of 1α,25-dihydroxycholecalciferol",at least ten times greater
same,"activity relative to 1,25-(OH)2 D3","[6]; listed as 26,26,26,27,27,27-hexafluoro-1α,25-dihydroxyvitamin D3",about ten times more active
same,ability to mobilize calcium from bone,[6]; [16],substantially greater
same,ability to stimulate calcium transport in the intestine,[6]; [16],substantially greater
same,anti-rachitic activity according to the rat line test,[6]; [16],substantially greater
same,toxicity at higher doses in humans,"[7]; 0.5 μg, 1 μg and 2 μg (FIGS. 2-4)",without toxicity problems
same,serum Ca change,[7]; [17],No major change
same,serum Mg change,[7]; [17],No major change
same,serum P change,[7]; [17],No major change
same,blood biochemistry change,[7]; [18],No change
same,serum electrolytes change,[7]; [18],No change
same,toxicity relative to 1α-hydroxyvitamin D3,[8],about five times more toxic
same,LD50 at 336 h,[9],0.043 mg/kg
same,calcium absorption,[10],promoted calcium absorption
same,hypercalcemia,[10],no hypercalcemia
same,safety,[10],no remarkable problem on safety
same,"""window"" or tolerance between effectiveness and toxicity in humans",[10]; up to 2.0 μg,relatively large
same,deaths,[11]; 0.3 mg/kg orally each day for three months,all six dogs
same,toxicity relative to 1α-hydroxyvitamin D3,[11]; conclusion for rats and dogs,much more toxic
